Each block holds one compound with its values, some of them ahead of it.
Assay: Stability studies (stress testing, accelerated test for 10 days) on crystal forms and free base
Assay type: physicochemical
Description: Detection conditions: Chromatographic column: Waters C18; Mobile phase A: acetonitrile-mobile phase B (70:30); Mobile phase B: 0.05 mol/l ammonium dihydrogen phosphate solution (pH=7.3); Column temperature: 30° C.; Detection wavelength: 247 nm.
Detection method: High performance liquid chromatography method, Pharmacopoeia of the People's Republic of China, Part II Appendix VD

[1] = Day 10, relative humidity 92.5%
[2] = Day 10, stress condition not given

Content (%) (40° C., Day 5): 98.96% | Content (%) (40° C., Day 10): 98.59% | Content (%) (60° C., Day 5): 96.77% | Content (%) (60° C., Day 10): 95.15% | Content (%) (Day 0): 99.37% | Maximum single impurity (%) (Day 0): 0.45 (RRT: 1.11) % | Maximum single impurity (%) (Day 5, 40° C.): 0.46 (RRT: 1.11) % | Maximum single impurity (%) (Day 5, 60° C.): 2.14 (RRT: 0.44) % | Maximum single impurity (%) (Day 10, 40° C.): 0.71 (RRT: 0.43) % | Maximum single impurity (%) (Day 10, 60° C.): 2.88 (RRT: 0.43) % | Stability (result in words) (under the condition of 60° C.): obviously degraded
SMILES: CCOc1cc2ncnc(Nc3ccc(F)c(Cl)c3)c2cc1NC(=O)/C=C/CN(C)C [Free base, (E)-N-(4-((3-chloro-4-fluorophenyl)amino)-7-ethoxyquinazolin-6-yl)-4-(dimethylamino)but-2-enamide, reference compound]

Maximum single impurity (%) (Day 0): 0.021 (RRT: 1.22) % | Purity (%) (Day 0): 99.98% | Total impurities (%) (Day 0): 0.02% | Water (%) (Day 0): 3.3% | Maximum single impurity (%) (Day 5, 40° C.): 0.022 (RRT: 1.22) % | Purity (%) (Day 5, 40° C.): 99.98% | Total impurities (%) (Day 5, 40° C.): 0.02% | Water (%) (Day 5, 40° C.): 3.3% | Maximum single impurity (%) (Day 5, 60° C.): 0.022 (RRT: 1.22) % | Purity (%) (Day 5, 60° C.): 99.96% | Total impurities (%) (Day 5, 60° C.): 0.04% | Water (%) (Day 5, 60° C.): 3.3% | Maximum single impurity (%) (Day 5, light irradiation): 0.051 (RRT: 0.93) % | Purity (%) (Day 5, light irradiation): 99.93% | Total impurities (%) (Day 5, light irradiation): 0.07% | Water (%) (Day 5, light irradiation): 3.1% | Maximum single impurity (%) (Day 5, relative humidity 75%): 0.021 (RRT: 1.22) % | Purity (%) (Day 5, relative humidity 75%): 99.98% | Total impurities (%) (Day 5, relative humidity 75%): 0.02% | Water (%) (Day 5, relative humidity 75%): 3.1% | Maximum single impurity (%) (Day 5, relative humidity 92.5%): 0.021 (RRT: 1.22) % | Purity (%) (Day 5, relative humidity 92.5%): 99.98% | Total impurities (%) (Day 5, relative humidity 92.5%): 0.02% | Water (%) (Day 5, relative humidity 92.5%): 3.2% | Maximum single impurity (%) (Day 10, 40° C.): 0.022 (RRT: 1.22) % | Purity (%) (Day 10, 40° C.): 99.98% | Total impurities (%) (Day 10, 40° C.): 0.02% | Water (%) (Day 10, 40° C.): 3.3% | Maximum single impurity (%) (Day 10, 60° C.): 0.020 (RRT: 1.22) % | Purity (%) (Day 10, 60° C.): 99.96% | Total impurities (%) (Day 10, 60° C.): 0.04% | Water (%) (Day 10, 60° C.): 3.3% | Maximum single impurity (%) (Day 10, light irradiation): 0.055 (RRT: 0.93) % | Purity (%) (Day 10, light irradiation): 99.91% | Total impurities (%) (Day 10, light irradiation): 0.09% | Water (%) (Day 10, light irradiation): 3.1% | Maximum single impurity (%) (Day 10, relative humidity 75%): 0.022 (RRT: 1.22) % | Purity (%) (Day 10, relative humidity 75%): 99.98% | Total impurities (%) (Day 10, relative humidity 75%): 0.02% | Water (%) (Day 10, relative humidity 75%): 3.1% | Maximum single impurity (%) [1]: 0.022 (RRT: 1.22) % | Purity (%) [1]: 99.98% | Total impurities (%) [1]: 0.02% | Water (%) [1]: 3.2% | Maximum single impurity (%) [2]: 0.022 (RRT: 1.22) % | Purity (%) [2]: 99.98% | Total impurities (%) [2]: 0.02% | Water (%) [2]: 3.2%
SMILES: CCOc1cc2ncnc(Nc3ccc(F)c(Cl)c3)c2cc1NC(=O)/C=C/CN(C)C.Cc1ccc(S(=O)(=O)O)cc1 [crystal form α, (E)-N-(4-((3-chloro-4-fluorophenyl)amino)-7-ethoxyquinazolin-yl)-4-(dimethylamino)but-2-enamide (Neptinib) di-p-methylbenzene sulfonate 1.5 hydrate]

Maximum single impurity (%) (Day 0): 0.017 (RRT: 1.22) % | Purity (%) (Day 0): 99.97% | Total impurities (%) (Day 0): 0.03% | Water (%) (Day 0): 4.4% | Maximum single impurity (%) (Day 5, 40° C.): 0.020 (RRT: 1.22) % | Purity (%) (Day 5, 40° C.): 99.97% | Total impurities (%) (Day 5, 40° C.): 0.03% | Water (%) (Day 5, 40° C.): 4.4% | Maximum single impurity (%) (Day 5, 60° C.): 0.151 (RRT: 0.93) % | Purity (%) (Day 5, 60° C.): 99.83% | Total impurities (%) (Day 5, 60° C.): 0.17% | Water (%) (Day 5, 60° C.): 4.3% | Maximum single impurity (%) (Day 5, light irradiation): 0.032 (RRT: 1.17) % | Purity (%) (Day 5, light irradiation): 99.94% | Total impurities (%) (Day 5, light irradiation): 0.06% | Water (%) (Day 5, light irradiation): 4.4% | Maximum single impurity (%) (Day 5, relative humidity 75%): 0.019 (RRT: 1.22) % | Purity (%) (Day 5, relative humidity 75%): 99.97% | Total impurities (%) (Day 5, relative humidity 75%): 0.03% | Water (%) (Day 5, relative humidity 75%): 4.4% | Maximum single impurity (%) (Day 5, relative humidity 92.5%): 0.018 (RRT: 1.22) % | Purity (%) (Day 5, relative humidity 92.5%): 99.97% | Total impurities (%) (Day 5, relative humidity 92.5%): 0.03% | Water (%) (Day 5, relative humidity 92.5%): 4.5% | Maximum single impurity (%) (Day 10, 40° C.): 0.020 (RRT: 122) % | Purity (%) (Day 10, 40° C.): 99.98% | Total impurities (%) (Day 10, 40° C.): 0.02% | Water (%) (Day 10, 40° C.): 4.5% | Maximum single impurity (%) (Day 10, 60° C.): 0.020 (RRT: 1.22) % | Purity (%) (Day 10, 60° C.): 99.94% | Total impurities (%) (Day 10, 60° C.): 0.06% | Water (%) (Day 10, 60° C.): 4.4% | Maximum single impurity (%) (Day 10, light irradiation): 0.177 (RRT: 0.93) % | Purity (%) (Day 10, light irradiation): 99.80% | Total impurities (%) (Day 10, light irradiation): 0.20% | Water (%) (Day 10, light irradiation): 4.5% | Maximum single impurity (%) (Day 10, relative humidity 75%): 0.022 (RRT: 1.22) % | Purity (%) (Day 10, relative humidity 75%): 99.98% | Total impurities (%) (Day 10, relative humidity 75%): 0.02% | Water (%) (Day 10, relative humidity 75%): 4.4% | Maximum single impurity (%) [1]: 0.021 (RRT: 1.22) % | Purity (%) [1]: 99.98% | Total impurities (%) [1]: 0.02% | Water (%) [1]: 4.5% | Maximum single impurity (%) [2]: 0.022 (RRT: 1.22) % | Purity (%) [2]: 99.98% | Total impurities (%) [2]: 0.02% | Water (%) [2]: 4.3%
SMILES: CCOc1cc2ncnc(Nc3ccc(F)c(Cl)c3)c2cc1NC(=O)/C=C/CN(C)C.Cc1ccc(S(=O)(=O)O)cc1.Cc1ccc(S(=O)(=O)O)cc1.O.O [crystal form β, (E)-N-(4-((3-chloro-4-fluorophenyl)amino)-7-ethoxyquinazolin-6-yl)-4-(dimethylamino)but-2-enamide (Neptinib) di-p-methylbenzene sulfonate 2 hydrate]

Source: patent US9957237B2, “Crystal form of neptinib di-p-methylbenzenesulfonate, preparation method thereof, and pharmaceutical composition containing same” (SHENZHEN NEPTUNUS PHARMACEUTICAL RESEARCH INSTITUTE CO., …, priority 2014, dated 2018)
